Assay results published in US8859549B2, “Potassium channel modulators” (AbbVie, Inc., priority 2011, dated 2014).

What was measured:
KCNQ 2/3 channels = target: T1, KCNQ 2/3 channels (Homo sapiens, UniProt O43525+O43526); assay: KCNQ 2/3 channel activation, thallium flux FLIPR assay (BTC-AM dye); type: cell-based; details: for Emax: HEK293, maximum response relative to the response of 10 μM retigabine (set at 100%), HEK293 KCNQ2/KCNQ3 cells, read-out: % MAX; for EC50: HEK293 cells stably expressing human KCNQ2 and KCNQ3 subunits, thallium-induced fluorescence, 4 min compound incubation
T1 construct: expressed in transfected cells; host or cells: HEK293
Summary of the method: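 HEK293 cells stably expressing human KCNQ2/KCNQ3 were loaded with BTC-AM (3 μg/mL, 2 h, RT) and preincubated with compound for 4 min in pH 7.3 gluconate buffer containing 0.1 mM ouabain. Flux was triggered by 6 mM TlNO3/10 mM K2SO4 and read for 3 min; EC50 came from summed responses over basal, with maximum relative to 10 μM retigabine (100%).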

Sprague-Dawley rats = assay: Spinal Nerve Ligation (SNL) model of neuropathic pain, tactile allodynia; type: in vivo, rat; details: about 30 mg/kg i.p., 30 minutes or more before testing
From the text: Adult male Sprague-Dawley rats (250-300 g body weight, Charles River Laboratories, Portage, Mich.) were used. Animal handling and experimental protocols were approved by the Institutional Animal Care and Use Committee (IACUC) at Abbott Laboratories. For all surgical procedures, animals were maintained under isoflurane anesthesia (4-5% to induce, 1-3% to maintain), and the incision sites were sterilized using a 10% povidone-iodine solution prior to and after surgeries.
Tactile (mechanical) allodynia was measured using calibrated von Frey filaments (Stoelting, Wood Dale, Ill.) as described in Chaplan, S. R., F. W. Bach, J. M. Pogrel, J. M. Chung and T. L. Yaksh, 1994, Quantitative assessment of tactile allodynia in the rat paw, J. Neurosci. Methods, 53, 55. Rats were placed into inverted individual plastic containers (20×12.5×20 cm) on top of a suspended wire mesh grid, and acclimated to the test chambers for 20 minutes. The von Frey filaments were presented perpendicularly to the plantar surface of the selected hind paw, and then held in this position for approximately 8 sec with enough force to cause a slight bend in the filament. Positive responses included an abrupt withdrawal of the hind paw from the stimulus, or flinching behavior immediately following removal of the stimulus. A 50% withdrawal threshold was determined using an up-down procedure (Dixon, W. J., 1980, Efficient analysis of experimental observations, Ann. Rev. Pharmacol. Toxicol., 20, 441). […] Tactile allodynia thresholds were also assessed in several control groups, including naive, sham-operated, and saline infused animals as well as in the contralateral paws of nerve-injured rats. To evaluate the anti-nociceptive effects, animals were administered vehicle or test compound and tactile allodynia was assessed 30 minutes after i.p. administration.
A model of spinal nerve ligation-induced (SNL model) neuropathic pain as originally described by Kim and Chung (Kim, S. H. and J. M. Chung, 1992, Pain 50, 355) was used to test a compound of the present application The left L5 and L6 spinal nerves of the rat were isolated adjacent to the vertebral column and tightly ligated with a 5-0 silk suture distal to the DRG, and care taken to avoid injury of the L4 spinal nerve. The same procedure was performed on Sham rats, but without nerve ligation. All animals were allowed to recover for at least one week and not more than three weeks prior to assessment of tactile allodynia.
Compounds were injected (i.p) 30 minutes or more before testing.

SMILES	Emax (KCNQ 2/3 channels) [%]	EC50 (KCNQ 2/3 channels) [µM]	change in paw withdrawal latency versus vehicle (Sprague-Dawley rats)
C[C@@H]1CN(c2nn(NC(=O)Cc3ccc(Cl)cc3)c(=O)c3ccccc23)C[C@H](C)O1 [Example 81, 2-(4-chlorophenyl)-N-{4-[cis-2,6-dimethylmorpholin-4-yl]-1-oxophthalazin-2(1H)-yl}acetamide]	85.1	0.663	statistically significant change
CC(C)(C)OC(=O)NCc1nn(NC(=O)Cc2ccc(Cl)cc2)c(=O)c2ccccc12 [Example 41, tert-butyl[(3-{[(4-chlorophenyl)acetyl]amino}-4-oxo-3,4-dihydrophthalazin-1-yl)methyl]carbamate]	90.3	0.975	statistically significant change
O=C(CC1CC2CCC1C2)Nn1nc(-c2ccc(C(F)(F)F)nc2)c2ccccc2c1=O (racemic) [Example 43, (±)-2-[(exo)-bicyclo[2.2.1]hept-2-yl]-N-{1-oxo-4-[6-(trifluoromethyl)pyridin-3-yl]phthalazin-2(1H)-yl}acetamide]	149	0.143	statistically significant change
O=C(CC1CC2CCC1C2)Nn1nc(-c2ccnc(C(F)(F)F)c2)c2ccccc2c1=O (racemic) [Example 76, (±)-2-[(exo)-bicyclo[2.2.1]hept-2-yl]-N-{1-oxo-4-[2-(trifluoromethyl)pyridin-4-yl]phthalazin-2(1H)-yl}acetamide]	127	0.126	statistically significant change
O=C(Cc1ccc(Cl)cc1)Nn1nc(S(=O)(=O)c2ccccc2)c2ccccc2c1=O [Example 69, 2-(4-chlorophenyl)-N-[1-oxo-4-(phenylsulfonyl)phthalazin-2(1H)-yl]acetamide]	118	0.0409	statistically significant change
O=C(Cc1cc(F)cc(F)c1)Nn1nc(S(=O)(=O)c2ccccc2)c2ccccc2c1=O [Example 68, 2-(3,5-difluorophenyl)-N-[1-oxo-4-(phenylsulfonyl)phthalazin-2(1H)-yl]acetamide]	79.9	0.0699	statistically significant change
O=C(CC1CC2CCC1C2)Nn1nc(N2CCS(=O)(=O)CC2)c2ccccc2c1=O (racemic) [Example 190, (±)-2-[(exo)-bicyclo[2.2.1]hept-2-yl]-N-[4-(1,1-dioxidothiomorpholin-4-yl)-1-oxophthalazin-2(1H)-yl]acetamide]	74.3	10.6	
O=C(Cc1cccc(Br)c1)Nn1nc(N2CCOCC2)c2ccccc2c1=O [Example 154, 2-(3-bromophenyl)-N-[4-(morpholin-4-yl)-1-oxophthalazin-2(1H)-yl]acetamide]	114	2.9	
Nc1ccc(Sc2nn(NC(=O)Cc3ccc(Cl)cc3)c(=O)c3ccccc23)cc1 [Example 105, N-{4-[(4-aminophenyl)sulfanyl]-1-oxophthalazin-2(1H)-yl}-2-(4-chlorophenyl)acetamide]	120	0.889	
COc1cc(CC(=O)Nn2nc(N3CCOCC3)c3ccccc3c2=O)cc(OC)c1 [Example 173, 2-(3,5-dimethoxyphenyl)-N-[4-(morpholin-4-yl)-1-oxophthalazin-2(1H)-yl]acetamide]	33.9		
